Molecules are shown by their SMILES. Some results are limits rather than exact numbers.

Usually melting point stands for the temperature of the solid-liquid transition. Turning to `OC(CN1CCC(O)(Cc2ccccc2)CC1)c1ccc(F)cc1` (stereo not drawn), the melting point lay in the range of 144 to 146 °C.

On to `CC(=O)Oc1c(C(C)(C)C)cc2c(c1C(C)(C)C)C=CS2(=O)=O`, for which the melting point is 195 °C.

In the case of `COCCN1C(=O)CCCc2c1ccc(Nc1ncc(Cl)c(Nc3ccc(N4CCOCC4)cc3OC)n1)c2OC`, the melting point lay within 136 to 138 °C.

`Cc1nc2c3c(c(C(=O)N(C)C)cc2n1C)CCC(c1ccccc1)N3` (stereo not drawn) had a melting point of 167 to 170 °C.

`Cc1cc(-c2ccc(C(F)(F)F)cc2)cc(-c2ccnc(-c3ccnc(N)c3)n2)n1` displayed a melting point of 217 °C.

The compound `CCOC(=O)c1ccc(CC(=O)NC(CC(C)C)c2ccccc2N2CCCCC2)cc1OCC` (stereo not drawn) yielded a melting point of 111 to 112 °C.

Compound `Cc1c(N2CC[C@H]([C@@H](C)NC(=O)OC(C)(C)C)C2)c(F)cc2c(=O)n(N)c(=O)n(C3CC3)c12` yielded a melting point of 84 to 86 °C.

On to `CN(C)CCCn1c(=O)c(C#N)c(N2CCN(C(=O)c3cccs3)CC2)c2cccnc21`, for which the melting point turned out to be 176 °C.

`CSCC1COCc2nc3c(N)nc4ccccc4c3n21` (stereo not drawn) came in with a melting point of 105 to 108 °C.

With `COc1ccc2c(c1)S(=O)(=O)C(C(=O)Nc1ccc(Cl)c(Cl)c1)C(=O)N2C` (stereo not drawn), the melting point was in the range of 230 to 233 °C.

Take `CNC(=O)[C@H]1S[C@@H](n2cnc3c(NCc4cccc(I)c4)nc(Cl)nc32)[C@H](O)[C@@H]1O`: the melting point was in the range of 140 to 141 °C.

The compound `O=c1nc(N2CCCc3ccccc32)sc2ncccc12` returned a melting point of 174 to 175 °C.

The compound `COC(=O)C(=O)Nc1ccc2c3c(n(CCCNC(=O)OC(C)(C)C)c(=O)c2c1)-c1ccccc1C3=O` showed a melting point of 157 to 159 °C.

Compound `C=C1CSC2C(NC(=O)Cc3ccccc3)C(=O)N2C1C(=O)OC(c1ccccc1)c1ccccc1` (stereo not drawn) showed a melting point of 144 to 147 °C.

With `CC(=O)NCC=C1CCc2ccc3nc(C)sc3c21`, the melting point fell in the range of 184 to 186 °C.

For the compound `O=C(O)CCCCCCCCCCC(=O)Nc1ccccc1OCCCC(=O)O`, the melting point lay in the range of 128 to 130 °C.

As for `CC(C)NC(=O)CCC(O)c1ccccc1` (stereo not drawn), the melting point was 131 to 135 °C.

As to `CC(C)N1CC2(COc3ccc(N)cc3OC2)OC1=O` (stereo not drawn), the melting point was in the range of 157 to 159 °C.

Compound `O=C1CCC(c2ccc(NC(=O)CCN3CCC(c4ccccc4)CC3)cc2)=NN1` yielded a melting point of 238 to 240 °C.

Regarding `CC1Nc2ccc(NC(=O)c3ccc(-c4ccccc4)cc3)cc2N1C` (stereo not drawn), the melting point stood at 270 °C.

`Cc1ccc(S(=O)(=O)Nc2cccc3c2Nc2ccc(O)cc2CO3)s1` gave a melting point of 184 to 188 °C.

Compound `COC(=O)c1ccc(Cl)c(N)c1Cl` returned a melting point of 50 to 52 °C.

Turning to `CCC(C)(CC)NC(=O)C1(O)CC(C)(C)NC(C)(C)C1`, the melting point lay in the range of 127 to 129 °C.

For the compound `O=C(O)c1ccn(C2=CC3=C(CC2)CCc2[nH]c(=O)c(=O)n(O)c23)c1`, the melting point was over 300 °C.

In turn, `Cc1ccc(OCC2CN(C(C)C)C(=O)O2)cn1` (stereo not drawn) gave a melting point of 86 to 88 °C.

As for `COC(=O)c1c(O)c2cc(OCc3ccccc3)ccc2c(=O)n1CC(C)C`, the melting point was 109 to 110 °C.

Consider `CC(C)c1nc(C(C)C)c(CNC2CCCCC2)c(-c2ccc(F)cc2)c1CO`, for which the melting point lay in the range of 131 to 133 °C.

Compound `COc1ccc(CC(=O)c2ccc(OC)c(F)c2)cc1F` yielded a melting point of 151 to 152 °C.

Compound `O=C(Nc1nc(C(F)(F)F)co1)C1c2ccccc2Oc2ccc(F)cc21` (racemic) showed a melting point of 241 °C.

`C=C1C2=C(CCCC2)C(=O)N1c1ccc(Cl)cc1F` gave a melting point of 84 to 85.5 °C.

In turn, `Cc1ccccc1C=C1CCn2c1nc1ccc(C#N)cc1c2=O` came in with a melting point of 234 to 236 °C.

`NC(=O)N1CCN(c2n[nH]c3ccccc23)CC1` returned a melting point of 158 to 160 °C.

Compound `CN(C(=O)c1ccc2nonc2c1)C1CCOC(O)C1` (stereo not drawn) showed a melting point of under 90 °C.

In turn, `CCOC(=O)CNC(=O)Oc1c(C)n(CCOC)ccc1=O` had a melting point of 134 to 135 °C.

`Cc1c(CCc2ccc3nc(N)oc3c2)nc2cc(CN)ccn12` yielded a melting point of 218 to 221 °C.

`CCOP(=O)(CC(=O)Nc1cc2c(Nc3ccc(F)c(Br)c3)ncnc2cn1)OCC` returned a melting point of 214 to 217 °C.

`COc1cccc2c1C(=O)c1c(cc3c(c1O)CCC(C(C)=O)C3)C2=O` (stereo not drawn): the melting point fell in the range of 222 to 225 °C.

Regarding `COc1ccc(-c2cc(-c3ccccc3)[nH]c2C(=O)NCc2ccc(C(=O)NO)cc2)cc1OC`, the melting point is 134 to 136 °C.

Regarding `COC(=O)[C@@H]1CC[C@@H]2CN1C(=O)N2OCc1ccccc1`, the melting point came to 86 °C.

Compound `Cc1cc(Oc2ccc(C(F)(F)F)cc2Cl)cc(C)c1N` yielded a melting point of 104 to 105 °C.

Compound `CCOc1cc2c(c3c1OC(C)(C)C3)C(c1cccc(N3C(=O)NC(C)(C)C3=O)c1)=NC(C)(C)C2` showed a melting point of 237 to 238 °C.

Compound `CC12CC(=O)C3C(CCC4CC(O)CCC43C)C1CCC2C(=O)CCCl` (stereo not drawn) showed a melting point of 110 to 112 °C.

`CN(c1ccc(Cl)cc1)C1CCN(c2ccc(OC[C@@]3(C)Cn4cc([N+](=O)[O-])nc4O3)cc2)CC1` displayed a melting point of 174 to 175 °C.

`CCc1cc(C(=O)c2ccccc2Cl)c(-n2c(C)nnc2CNC(=O)/C=C/c2ccccc2N)s1`: the melting point fell in the range of 141 to 143 °C.

The compound `COC(=O)c1ccc(OCCNC(=O)C2Cc3ccccc3N2S(=O)(=O)c2ccc(-c3ccc(F)cc3Cl)cc2)cc1F` (stereo not drawn) displayed a melting point of 71 to 76 °C.

On to `CCn1c(N)nc(N2CCc3ccccc3CC2)c(C#N)c1=O`, for which the melting point was in the range of 195 to 203 °C.

In turn, `CC(C)(C)OCCCNC(=O)c1nn(C2CCCCO2)cc1NC(=O)c1ccccn1` (stereo not drawn) registered a melting point of 101 to 103 °C.

In turn, `NC(=S)C1(c2ccccn2)SCCCS1` came in with a melting point of 214 °C.

On to `COC(=O)c1c(C)n(-c2ccc(Cl)cc2)c(C)cc1=O`, for which the melting point was 189 to 190 °C.

For `CCOC(=O)c1c(N2CCN(C(=O)c3cccs3)CC2)c2cccnc2n(Cc2ccccc2)c1=O`, the melting point came to 168 °C.

Compound `N#Cc1cc([N+](=O)[O-])ccc1N1CCNCC1CCO` (stereo not drawn) showed a melting point of 100 to 102 °C.

Compound `Cc1c(C(=O)Nc2ccc(OCC(C)C)c(C#N)c2)cnn1-c1ccc(F)cc1` registered a melting point of 177 to 178 °C.

The compound `Cc1nc2n(c(=O)c1CCN1CCC(C(=NO)c3ccc(F)cc3F)CC1)CCCC2` had a melting point of 180 to 183 °C.

In turn, `Cc1nnc(-c2ccc3occ(-c4ccc(S(=O)(=O)CF)cc4)c3c2)o1` had a melting point of 191 to 192 °C.

In the case of `COc1ccc(COc2ccc([N+](=O)[O-])cc2)cc1`, the melting point was in the range of 122 to 124 °C.

On to `CC1=Cc2cc(-c3nnn[nH]3)ccc2OC1(C)C`, for which the melting point was in the range of 179 to 181 °C.

For `CCOC(=O)C=Cc1ccc(Oc2nsnc(Cl)c2=O)cc1`, the melting point is 126 to 128 °C.

As for `CC(C)S(=O)(=O)N1CCN(Cc2ccc(COc3cccc4c3CN(C3CCC(=O)NC3=O)C4=O)cc2)CC1` (stereo not drawn), the melting point was in the range of 233 to 235 °C.

Consider `COc1ccc(C(O)(Cc2ccccc2)c2ccccc2)cc1` (stereo not drawn), for which the melting point lay within 111 to 112 °C.

`CC(=O)c1ccc(OC2SCC(O)C(O)C2O)cn1` (stereo not drawn) yielded a melting point of 178 to 179 °C.

With `C#CCN1CCC(C(C)(C)CO)CC1`, the melting point lay within 78 to 82 °C.

Compound `CCCCCCN(O)CCCCCC` yielded a melting point of 67 °C.

On to `CCC(=O)NC[C@@H]1C[C@H]1c1cccn2nc(C)cc12` (relative stereo), for which the melting point lay in the range of 95 to 98 °C.

Regarding `O=C(Nc1c(Cl)cccc1Cl)C1CC1`, the melting point fell in the range of 166 to 169 °C.

`C#CCOc1ccc2c(Cl)nnc(C)c2c1` displayed a melting point of 178 to 180 °C.

The compound `CCC(=O)NCCOc1ccccc1` came in with a melting point of 61.5 to 64 °C.

Turning to `N#CC12CC(c3ccccc31)c1ccccc12`, the melting point fell in the range of 120 to 123 °C.

`CC(C)(OCc1nn(Cc2ccccc2)c2ccccc12)C(=O)Nc1ccccn1` came in with a melting point of 121 to 122 °C.

As to `Cc1nnn(Cc2cc(-c3ncco3)ccc2-c2ccccc2S(=O)(=O)Nc2onc(C)c2C)n1`, the melting point is 168 to 174 °C.

With `CCCc1c(OCC(O)CS(=O)(=O)c2ccc(CC(=O)O)c(Cl)c2Cl)ccc(C(C)=O)c1O` (stereo not drawn), the melting point was in the range of 181 to 183 °C.

`CCOC(=O)Cn1c(=O)[nH]c2ccc(Cl)cc2c1=O` came in with a melting point of 214 to 215 °C.

On to `COC(=O)[C@H]1CC[C@H](n2cnn(-c3ccc(C4CCN(C(=O)C(F)(F)F)CC4)cc3)c2=O)CC1`, for which the melting point was in the range of 184 to 186 °C.

In the case of `COc1cccc(-c2cc(C(C)(C)C)c(O)c(C(C)(C)C)c2)c1`, the melting point was 96 to 98 °C.

`Cc1onc(-c2ccccc2)c1-c1csc(NC(=O)C(N)=O)n1` had a melting point of 204 to 205 °C.

Turning to `O=C1c2ccccc2C(=O)N1c1ncc(C(Cl)Cl)nc1CO`, the melting point lay within 188 to 189 °C.

Turning to `NC1=Nc2cc(Cl)ccc2Nc2cscc21`, the melting point lay within 239 to 240 °C.

Take `O=C1Nc2ccc(F)cc2C(CCc2ccccc2)(C(F)(F)F)N1` (racemic): the melting point is 98 °C.

For the compound `CNC(=O)NN=C(c1ccc([N+](=O)[O-])cc1)c1cc2c(cc1C[C@H](C)O)OCO2`, the melting point is 238 °C.

With `CCCCN(Cc1ccc(-c2ccccc2-c2nnn[nH]2)cc1)c1nc(C)ccc1C(=O)O`, the melting point lay in the range of 175 to 177 °C.

For the compound `CCCCCCOc1ccc(C(=O)Cl)cc1`, the melting point is 90 to 93 °C.

On to `O=c1oc2ccccc2c(O)c1Sc1ccccc1`, for which the melting point fell in the range of 186 to 189 °C.

In turn, `Cc1nnc2n1-c1ccc(I)cc1C(c1ccccc1F)=NC2` came in with a melting point of 235 to 238 °C.

In turn, `O=C(O[C@H]1Cc2c(O)cc(O)cc2O[C@@H]1c1ccc(O)cc1)c1cc(O)c(O)c(O)c1` gave a melting point of 96 to 98 °C.

Compound `CC(C)Nc1nc2cc(Cl)c(Cl)cc2n1[C@H]1C[C@@H](CO)[C@H](O)[C@@H]1O` returned a melting point of 137 to 138 °C.

For `NCCc1c[nH]c2ccc(Cc3ccccc3)cc12`, the melting point lay within 150 to 153 °C.

In turn, `C[C@@H]1Cc2c(N3CCN(C)CC3)c(F)cc3c(=O)c(C(=O)O)cn1c23` came in with a melting point of 249 to 252 °C.

In the case of `COC(=O)CCCC#Cc1cc(Cl)ccc1NS(=O)(=O)c1cccc(OC)c1`, the melting point was in the range of 71 to 76 °C.

In turn, `CC(=NOCC1CC1)c1cc(Cl)ccc1NS(=O)(=O)C(F)(F)F` displayed a melting point of 53 to 54 °C.
